Converted amounts (≈) assume the structure as drawn.
What was measured:
[1] = system: Mycobacterium tuberculosis; experiment: Antitubercular activity against Mycobacterium tuberculosis H37Rv by microbroth dilution method; assay type: functional; conditions: Mycobacterium tuberculosis, H37Rv; read-out: MIC
Bacillus anthracis = experiment: Antibacterial activity against Bacillus anthracis Sterne 34F2 by microbroth dilution method; assay type: functional; conditions: Bacillus anthracis, Sterne 34F2; read-out: MIC
Enterococcus faecalis = experiment: Antibacterial activity against Enterococcus faecalis ATCC 33186 by microbroth dilution method; assay type: functional; conditions: Enterococcus faecalis, ATCC 33186; read-out: MIC
Staphylococcus aureus [2] = experiment: Antibacterial activity against methicillin-sensitive Staphylococcus aureus ATCC 29213 by microbroth dilution method; assay type: functional; conditions: Staphylococcus aureus, ATCC 29213; read-out: MIC
Staphylococcus aureus [3] = experiment: Antibacterial activity against methicillin-resistant Staphylococcus aureus NRS70 by microbroth dilution method; assay type: functional; conditions: Staphylococcus aureus, NRS70; read-out: MIC
Streptococcus pyogenes = experiment: Antibacterial activity against Streptococcus pyogenes ATCC 700294 by microbroth dilution method; assay type: functional; conditions: Streptococcus pyogenes, ATCC 700294; read-out: MIC
Streptococcus pneumoniae = experiment: Antibacterial activity against Streptococcus pneumoniae R6 by microbroth dilution method; assay type: functional; conditions: Streptococcus pneumoniae, R6; read-out: MIC
Bacillus subtilis = experiment: Antibacterial activity against Bacillus subtilis ATCC 23857 by microbroth dilution method; assay type: functional; conditions: Bacillus subtilis, ATCC 23857; read-out: MIC
Acinetobacter baumannii = experiment: Antibacterial activity against Acinetobacter baumannii ATCC 19606 by microbroth dilution method; assay type: functional, ATCC 19606 = CIP 70.34 = JCM 6841; conditions: Acinetobacter baumannii, ATCC 19606 = CIP 70.34 = JCM 6841; read-out: MIC
Escherichia coli [4] = experiment: Antibacterial activity against Escherichia coli K-12 by microbroth dilution method; assay type: functional
Escherichia coli [5] = experiment: Antibacterial activity against Escherichia coli harboring TolC deletion mutant by microbroth dilution method; assay type: functional; conditions: Escherichia coli; read-out: MIC
Burkholderia cepacia = experiment: Antibacterial activity against Burkholderia cepacia ATCC 25416 by microbroth dilution method; assay type: functional
Klebsiella pneumoniae = experiment: Antibacterial activity against Klebsiella pneumoniae ATCC 33495 by microbroth dilution method; assay type: functional
Proteus mirabilis = experiment: Antibacterial activity against Proteus mirabilis ATCC 25933 by microbroth dilution method; assay type: functional
Proteus vulgaris = experiment: Antibacterial activity against Proteus vulgaris ATCC 33420 by microbroth dilution method; assay type: functional
Pseudomonas aeruginosa = experiment: Antibacterial activity against Pseudomonas aeruginosa PAO1 by microbroth dilution method; assay type: functional

| Structure (SMILES) | MIC [1] [µg/mL] | MIC (Bacillus anthracis) [µg/mL] | MIC (Enterococcus faecalis) [µg/mL] | MIC (Staphylococcus aureus [2]) [µg/mL] | MIC (Staphylococcus aureus [3]) [µg/mL] | MIC (Streptococcus pyogenes) [µg/mL] | MIC (Streptococcus pneumoniae) [µg/mL] | MIC (Bacillus subtilis) [µg/mL] | MIC (Acinetobacter baumannii) [µg/mL] | MIC (Escherichia coli [4]) [µg/mL] | MIC (Escherichia coli [5]) [µg/mL] | MIC (Burkholderia cepacia) [µg/mL] | MIC (Klebsiella pneumoniae) [µg/mL] | MIC (Proteus mirabilis) [µg/mL] | MIC (Proteus vulgaris) [µg/mL] | MIC (Pseudomonas aeruginosa) [µg/mL] |
| --- | --- | --- | --- | --- | --- | --- | --- | --- | --- | --- | --- | --- | --- | --- | --- | --- |
| COc1cc2ccc1Oc1cc(ccc1OC)CCCCC(NCCc1ccc(F)cc1)CC2 (centres undefined) | 25 (≈ 53.9 µM) | 50 (≈ 108 µM) | 25 (≈ 53.9 µM) | 25 (≈ 53.9 µM) | 25 (≈ 53.9 µM) | 50 (≈ 108 µM) | 25 (≈ 53.9 µM) | 12.5 (≈ 27 µM) | 100 (≈ 216 µM) | > 100 | 25 (≈ 53.9 µM) | > 100 | > 100 | > 100 | > 100 | > 100 |
| COc1ccc2cc1Oc1cc(ccc1OC)CCC(NCc1ccc(C(F)(F)F)cc1)CCCC2 (centres undefined) | 25 (≈ 50 µM) | 12.5 (≈ 25 µM) | > 100 | > 100 | 12.5 (≈ 25 µM) | 50 (≈ 100 µM) | > 100 | 12.5 (≈ 25 µM) | > 100 | > 100 | 6.25 (≈ 12.5 µM) | > 100 | > 100 | > 100 | > 100 | > 100 |
| COc1ccc2cc1Oc1cccc(c1)CCC(NCCc1ccc(F)cc1)CC2 (centres undefined) | 25 (≈ 61.7 µM) | 50 (≈ 123 µM) | 50 (≈ 123 µM) | 25 (≈ 61.7 µM) | 25 (≈ 61.7 µM) | 50 (≈ 123 µM) | 50 (≈ 123 µM) | 25 (≈ 61.7 µM) | 50 (≈ 123 µM) | > 100 | 12.5 (≈ 30.8 µM) | > 100 | > 100 | > 100 | > 100 | > 100 |
| COc1ccc2cc1Oc1cc(ccc1OC)CCC(NCCN(C)C)CCCC2 (centres undefined) | 100 (≈ 242 µM) | > 100 | > 100 | > 100 | > 100 | > 100 | > 100 | 100 (≈ 242 µM) | > 100 | > 100 | > 100 | > 100 | > 100 | > 100 | > 100 | > 100 |
| CCNC1CCCCc2ccc(OC)c(c2)Oc2cc(ccc2OC)CC1 (centres undefined) | 100 (≈ 271 µM) | > 100 | > 100 | > 100 | > 100 | > 100 | > 100 | > 100 | > 100 | > 100 | > 100 | > 100 | > 100 | > 100 | > 100 | > 100 |
| COc1ccc2cc1Oc1cc(ccc1OC)CCC(Nc1ccc(Cl)cc1)CCCC2 (centres undefined) | > 100 | > 100 | > 100 | > 100 | > 100 | > 100 | > 100 | > 100 | > 100 | > 100 | > 100 | > 100 | > 100 | > 100 | > 100 | > 100 |
| COc1ccc2cc1Oc1cc(ccc1OC)CCC(NC(=O)NCCc1ccccc1)CCCC2 (centres undefined) | > 100 | > 100 | > 100 | > 100 | > 100 | > 100 | > 100 | > 100 | > 100 | > 100 | > 100 | > 100 | > 100 | > 100 | > 100 | > 100 |
| COc1ccc2cc1Oc1cc(ccc1OC)CCC(OC(=O)Nc1ccc(F)cc1)CCCC2 (centres undefined) | > 100 | > 100 | 50 (≈ 104 µM) | > 100 | 25 (≈ 52.1 µM) | > 100 | > 100 | > 100 | > 100 | > 100 | > 100 | > 100 | > 100 | > 100 | > 100 | > 100 |
| COc1ccc2cc1Oc1cc(ccc1OC)CCC(NCCc1ccccc1F)CCCC2 (centres undefined) | 25 (≈ 53.9 µM) | 50 (≈ 108 µM) | 25 (≈ 53.9 µM) | 50 (≈ 108 µM) | 25 (≈ 53.9 µM) | 50 (≈ 108 µM) | 50 (≈ 108 µM) | 12.5 (≈ 27 µM) | 100 (≈ 216 µM) | > 100 | 25 (≈ 53.9 µM) | > 100 | > 100 | > 100 | > 100 | > 100 |
| COc1ccc2cc1Oc1cccc(c1)CCCCC(NCCc1ccc(F)cc1)CC2 (centres undefined) | 25 (≈ 57.7 µM) | 25 (≈ 57.7 µM) | 12.5 (≈ 28.8 µM) | 25 (≈ 57.7 µM) | 12.5 (≈ 28.8 µM) | 50 (≈ 115 µM) | 50 (≈ 115 µM) | 6.25 (≈ 14.4 µM) | 50 (≈ 115 µM) | > 100 | 12.5 (≈ 28.8 µM) | > 100 | > 100 | > 100 | > 100 | > 100 |
| COc1ccc2cc1Oc1cc(ccc1OC)CCC(NCCc1ccc3c(c1)OCO3)CCCC2 (centres undefined) | 25 (≈ 51.1 µM) | 50 (≈ 102 µM) | 50 (≈ 102 µM) | 50 (≈ 102 µM) | 25 (≈ 51.1 µM) | 12.5 (≈ 25.5 µM) | 50 (≈ 102 µM) | 12.5 (≈ 25.5 µM) | > 100 | > 100 | 12.5 (≈ 25.5 µM) | > 100 | > 100 | > 100 | > 100 | > 100 |
| COc1ccc2cc1Oc1cc(ccc1OC)CCC(NCCc1ccc(F)cc1)CC2 | 50 (≈ 115 µM) | 100 (≈ 230 µM) | 100 (≈ 230 µM) | 50 (≈ 115 µM) | 100 (≈ 230 µM) | 100 (≈ 230 µM) | 100 (≈ 230 µM) | 50 (≈ 115 µM) | 100 (≈ 230 µM) | > 100 | 50 (≈ 115 µM) | > 100 | > 100 | > 100 | > 100 | > 100 |
| COc1ccc2cc1Oc1cc(ccc1OC)CCC(OS(C)(=O)=O)CCCC2 (centres undefined) | > 100 | > 100 | > 100 | > 100 | > 100 | > 100 | > 100 | > 100 | > 100 | > 100 | > 100 | > 100 | > 100 | > 100 | > 100 | > 100 |
| COc1ccc2cc1Oc1cc(ccc1OC)CCC(OS(=O)(=O)c1ccc(OC(F)(F)F)cc1)CCCC2 (centres undefined) | > 100 | 100 (≈ 176 µM) | 50 (≈ 88.2 µM) | > 100 | 50 (≈ 88.2 µM) | > 100 | > 100 | > 100 | > 100 | > 100 | > 100 | > 100 | > 100 | > 100 | > 100 | > 100 |
| COc1ccc2cc1Oc1cc(ccc1OC)CCC(NCCCCc1ccccc1)CCCC2 (centres undefined) | 25 (≈ 52.8 µM) | 50 (≈ 106 µM) | 25 (≈ 52.8 µM) | 25 (≈ 52.8 µM) | 25 (≈ 52.8 µM) | 12.5 (≈ 26.4 µM) | 50 (≈ 106 µM) | 12.5 (≈ 26.4 µM) | 100 (≈ 211 µM) | > 100 | 12.5 (≈ 26.4 µM) | > 100 | > 100 | > 100 | > 100 | > 100 |
| COc1ccc2cc1Oc1cc(ccc1OC)CCC(NCCc1cccc(F)c1)CCCC2 (centres undefined) | 25 (≈ 53.9 µM) | 50 (≈ 108 µM) | 25 (≈ 53.9 µM) | 50 (≈ 108 µM) | 25 (≈ 53.9 µM) | 50 (≈ 108 µM) | 50 (≈ 108 µM) | 12.5 (≈ 27 µM) | 50 (≈ 108 µM) | > 100 | 25 (≈ 53.9 µM) | > 100 | > 100 | > 100 | > 100 | > 100 |
| COc1ccc2cc1Oc1cc(ccc1OC)CCC(OC(=O)NCCc1ccccc1)CCCC2 (centres undefined) | > 100 | > 100 | > 100 | > 100 | > 100 | > 100 | > 100 | > 100 | > 100 | > 100 | > 100 | > 100 | > 100 | > 100 | > 100 | > 100 |
| COc1ccc2cc1Oc1cc(ccc1OC)CCC(NCCCc1ccccc1)CCCC2 (centres undefined) | 50 (≈ 109 µM) | 50 (≈ 109 µM) | 25 (≈ 54.4 µM) | 25 (≈ 54.4 µM) | 25 (≈ 54.4 µM) | 50 (≈ 109 µM) | 50 (≈ 109 µM) | 25 (≈ 54.4 µM) | 50 (≈ 109 µM) | > 100 | 12.5 (≈ 27.2 µM) | > 100 | > 100 | > 100 | > 100 | > 100 |
| COc1ccc2cc1Oc1cc(ccc1OC)CCC(N1CCN(C)CC1)CCCC2 (centres undefined) | 50 (≈ 118 µM) | 100 (≈ 236 µM) | 100 (≈ 236 µM) | 100 (≈ 236 µM) | 50 (≈ 118 µM) | > 100 | 100 (≈ 236 µM) | 50 (≈ 118 µM) | 100 (≈ 236 µM) | > 100 | 50 (≈ 118 µM) | > 100 | > 100 | > 100 | > 100 | > 100 |

Reference: ChEMBL document CHEMBL4477227, “Synthesis and antibacterial evaluation of macrocyclic diarylheptanoid derivatives” (Bioorg Med Chem Lett, 2016)
